Earlier results, collected in PMC12844998, “Bridging the Knowledge Gap in Harmaline’s Pharmacological Properties: A Focus on Thermodynamics and Kinetics” (Pharmaceutics, 2025).

Conditions: source not stated; cited from earlier work

CCCCCC [Hex, n-Hexane]
logP: 3.5
